Experimental data as given in paper PMC10313671, “Accelerating the prediction and discovery of peptide hydrogels with human-in-the-loop” (Nature Communications, 2023).
Where a SMILES comes first, the peptide text is derived from it.

Tests used:
[1] = Peptide hydrogel formation, vial-inverting method; assay type: physicochemical; set-up: key to EXP / GELATION: 0: no hydrogel; 1: hydrogel; settings: for State: ultrasonication, standing 48 h; for State / GELATION: vial-inverting method; for Concentration: concentration at which the state was recorded: lowest of 30, 60, 90, 120 mM that gave a gel, 120 mM for non-gelating peptides; for GELATION: 1 = hydrogel, 0 = no hydrogel
Procedure, shortened: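 Gelation judged by vial inversion, a non-flowing self-supporting sample counting as hydrogel, after 48 h standing. Peptide in water at 30 mM first, escalating to 60, 90 and 120 mM if no gel; pH set to 6.5–8.5 by stepwise 1 N NaOH, each step sonicated briefly.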

[2] = Transmission electron microscope (negative staining) of peptide assemblies; settings: for Morphology: TEM, negative staining with uranyl acetate, 120 kV; for morphology by TEM (in words): aqueous solution or hydrogel, negative staining
Protocol: We used the negative staining technique to observe the morphologies formed by peptides. A micropipette was used to load 10 μL of sample solution to a carbon-coated copper grid, and we used a piece of filter paper to remove the excess solution. After rinsing the grid with the deionized water, we used uranyl acetate to stain the sample for 1 minute and then rinsed the grid with deionized water again.

[3] = 120 mM peptide (highest tested) in ultrapure water, pH 6.5-8.5 (1 N NaOH), precipitate, sol, suspension = no gel
[4] = 60 mM peptide in ultrapure water, pH 6.5-8.5 (1 N NaOH), no gel at 30 mM
[5] = 30 mM peptide in ultrapure water, pH adjusted to 6.5-8.5 with 1 N NaOH, concentration raised 30/60/90/120 mM until gelation

SMILES	State [1, 3]	Concentration [1] [mM]	GELATION ([1]; peptide concentration 120 mM)	Morphology ([2]; line of the table gives 120 mM)	also measured
O=C(O)[C@H](Cc1c[nH]c2ccccc12)NC(=O)[C@H](Cc1ccc(O)cc1)NC(=O)[C@H](Cc1c[nH]c2ccccc12)NC(=O)[C@@H]1CCCN1 [PWYW] (H-PWYW-OH)	gel	120	1	aggregates	–
O=C(O)[C@H](Cc1ccc(O)cc1)NC(=O)[C@H](Cc1ccc(O)cc1)NC(=O)[C@H](Cc1c[nH]c2ccccc12)NC(=O)[C@@H]1CCCN1 [PWYY] (H-PWYY-OH)	–	60	–	–	State [1, 4]: gel; GELATION ([1]; peptide concentration 60 mM): 1; Morphology ([2]; line of the table gives 60 mM): aggregates
CC[C@H](C)[C@H](NC(=O)[C@H](Cc1ccc(O)cc1)NC(=O)[C@H](Cc1ccc(O)cc1)NC(=O)[C@@H]1CCCN1)C(=O)O [PYYI] (H-PYYI-OH)	sol	120	0	aggregates	–
CC[C@H](C)[C@H](NC(=O)[C@@H](NC(=O)[C@H](Cc1c[nH]cn1)NC(=O)[C@@H](N)CCC(N)=O)[C@@H](C)CC)C(=O)O [QHII] (H-QHII-OH)	sol	120	0	aggregates	–
CSCC[C@H](NC(=O)[C@@H](N)CCC(N)=O)C(=O)N[C@H](C(=O)N[C@H](C(=O)O)C(C)C)C(C)C [QMVV] (H-QMVV-OH)	gel	120	1	aggregates	–
N=C(N)NCCC[C@H](NC(=O)[C@H](CCCNC(=N)N)NC(=O)[C@H](CCCNC(=N)N)NC(=O)[C@@H](N)CCCNC(=N)N)C(=O)O [RRRR] (H-RRRR-OH)	sol	120	0	aggregates	morphology by TEM (in words) [2]: aggregates with different sizes
CC(C)[C@H](NC(=O)[C@H](Cc1c[nH]c2ccccc12)NC(=O)[C@@H](N)CCCNC(=N)N)C(=O)N[C@@H](Cc1ccccc1)C(=O)O [RWVF] (H-RWVF-OH)	sol	120	0	aggregates	morphology by TEM (in words) [2]: aggregates with different sizes
C[C@H](NC(=O)[C@@H](N)CO)C(=O)N[C@@H](Cc1c[nH]c2ccccc12)C(=O)N[C@@H](Cc1ccccc1)C(=O)O [SAWF] (H-SAWF-OH)	–	60	–	–	State [1, 4]: gel; GELATION ([1]; peptide concentration 60 mM): 1; Morphology ([2]; line of the table gives 60 mM): fibre
CC(C)C[C@H](NC(=O)[C@@H](N)CO)C(=O)N[C@H](C(=O)N[C@H](C(=O)O)C(C)C)C(C)C [SLVV] (H-SLVV-OH)	–	60	–	–	State [1, 4]: gel; GELATION ([1]; peptide concentration 60 mM): 1; Morphology ([2]; line of the table gives 60 mM): fibre
N[C@@H](CO)C(=O)N[C@@H](CO)C(=O)N[C@@H](Cc1ccccc1)C(=O)N[C@@H](Cc1ccccc1)C(=O)O [SSFF] (H-SSFF-OH)	–	30	–	–	State [1, 5]: gel; GELATION ([1]; peptide concentration 30 mM): 1; Morphology ([2]; line of the table gives 30 mM): fibre
N[C@@H](CO)C(=O)N[C@@H](CO)C(=O)N[C@@H](CO)C(=O)N[C@@H](CO)C(=O)O [SSSS] (H-SSSS-OH)	suspension	120	0	blank	–
C[C@@H](O)[C@H](NC(=O)[C@@H](N)CO)C(=O)N[C@@H](Cc1ccc(O)cc1)C(=O)N[C@@H](Cc1ccccc1)C(=O)O [STYF] (H-STYF-OH)	–	60	–	–	State [1, 4]: gel; GELATION ([1]; peptide concentration 60 mM): 1; Morphology ([2]; line of the table gives 60 mM): hybrid(sphere+fibre)
N[C@@H](CO)C(=O)N[C@@H](Cc1c[nH]c2ccccc12)C(=O)N[C@@H](Cc1ccc(O)cc1)C(=O)N[C@@H](Cc1ccccc1)C(=O)O [SWYF] (H-SWYF-OH)	gel	120	1	fibre	–
N[C@@H](CO)C(=O)N[C@@H](Cc1ccc(O)cc1)C(=O)N[C@@H](Cc1ccccc1)C(=O)N[C@@H](Cc1ccccc1)C(=O)O [SYFF] (H-SYFF-OH)	–	30	–	–	State [1, 5]: gel; GELATION ([1]; peptide concentration 30 mM): 1; Morphology ([2]; line of the table gives 30 mM): fibre
CC(C)[C@H](NC(=O)[C@H](C)NC(=O)[C@@H](N)[C@@H](C)O)C(=O)N[C@@H](Cc1ccccc1)C(=O)O [TAVF] (H-TAVF-OH)	gel	120	1	sheet	–
C[C@@H](O)[C@H](N)C(=O)NCC(=O)N[C@@H](Cc1ccccc1)C(=O)N[C@@H](Cc1ccccc1)C(=O)O [TGFF] (H-TGFF-OH)	gel	120	1	aggregates	–
C[C@@H](O)[C@H](N)C(=O)N[C@@H](CCCNC(=N)N)C(=O)N[C@@H](Cc1ccccc1)C(=O)N[C@@H](CO)C(=O)O [TRFS] (H-TRFS-OH)	suspension	120	–	particle	morphology by TEM (in words) [2]: aggregates with different sizes
C[C@@H](O)[C@H](N)C(=O)N[C@H](C(=O)N[C@H](C(=O)N[C@H](C(=O)O)[C@@H](C)O)[C@@H](C)O)[C@@H](C)O [TTTT] (H-TTTT-OH)	suspension	120	0	aggregates	–
CC(C)[C@H](N)C(=O)N[C@@H](C)C(=O)N[C@@H](Cc1ccccc1)C(=O)N[C@@H](Cc1ccc(O)cc1)C(=O)O [VAFY] (H-VAFY-OH)	gel	120	1	sphere	–
CC(C)C[C@H](NC(=O)[C@H](C)NC(=O)[C@@H](N)C(C)C)C(=O)N[C@@H](CCC(=O)O)C(=O)O [VALE] (H-VALE-OH)	suspension	120	0	aggregates	–
CC(C)C[C@H](NC(=O)[C@H](C)NC(=O)[C@@H](N)C(C)C)C(=O)N[C@H](C(=O)O)C(C)C [VALV] (H-VALV-OH)	sol	120	0	aggregates	EXP ([1]; experimental gelation result of the synthesized peptide): 0
CC(C)[C@H](N)C(=O)N[C@@H](Cc1ccccc1)C(=O)N[C@@H](Cc1c[nH]cn1)C(=O)N[C@@H](CC(N)=O)C(=O)O [VFHN] (H-VFHN-OH)	suspension	120	0	aggregates	–
CSCC[C@H](NC(=O)[C@H](CCSC)NC(=O)[C@H](Cc1ccccc1)NC(=O)[C@@H](N)C(C)C)C(=O)O [VFMM] (H-VFMM-OH)	gel	120	1	fibre	–
CC(C)[C@H](N)C(=O)N[C@@H](Cc1ccccc1)C(=O)N[C@H](C(=O)N[C@@H](Cc1ccccc1)C(=O)O)C(C)C [VFVF] (H-VFVF-OH)	–	30	–	–	State [1, 5]: gel; GELATION ([1]; peptide concentration 30 mM): 1; Morphology ([2]; line of the table gives 30 mM): sheet
CC[C@H](C)[C@H](NC(=O)[C@H](CC(C)C)NC(=O)[C@@H](NC(=O)[C@@H](N)C(C)C)[C@@H](C)CC)C(=O)O [VILI] (H-VILI-OH)	–	60	–	–	State [1, 4]: gel; GELATION ([1]; peptide concentration 60 mM): 1; Morphology ([2]; line of the table gives 60 mM): hybrid(sheet+fibre)
CC(C)C[C@H](NC(=O)[C@@H](NC(=O)[C@H](CC(C)C)NC(=O)[C@@H](N)C(C)C)C(C)C)C(=O)O [VLVL] (H-VLVL-OH)	gel	120	1	sheet	–
CC(C)C[C@H](NC(=O)[C@@H](N)C(C)C)C(=O)N[C@H](C(=O)N[C@H](C(=O)O)C(C)C)C(C)C [VLVV] (H-VLVV-OH)	gel	120	1	sheet	–
